We go through 17 compounds from patent US12516051B1, “Small molecule degraders and fluorescent probes of PXR” (St. Jude Children's Research Hospital, Inc., priority 2024, dated 2026).

The test system of the series is SNU-C4 HiBiT-PXR KI cells. Nature of the series: Cytotoxicity, CellTiter-Glo Luminescent Cell Viability Assay. The class given is cell-based. As for the experimental part:
An Echo 655T Acoustic Liquid Handler was used to dispense 75 nL/well of DMSO or PROTAC dilution into white tissue culture-treated 384-well plates. For 24 h cytotoxicity, 25 μL assay media containing 1×10^4 cells was added to each well to match the conditions for the degradation assays. For 72 h cytotoxicity, 25 μL RPMI with 10% FBS containing 2.5×10^3 cells was added to each well to match normal growth conditions. […] After 24 h or 72 h, the CellTiter-Glo Luminescent Cell Viability Assay (Promega, cat. #G7572) and an EnVision microplate reader were used to assess cytotoxicity. DMSO wells with cells served as positive controls, and wells without cells served as negative controls. The percent cell viability for each well was calculated using equation 5,

The mark [1] stands for this setting: read-out: 24 h CC50, Table 2, 24 h treatment.
Where [2] appears, read: read-out: 72 h CC50, Table 2, 72 h treatment.
Setting [3] is: read-out: 24 h CC50, Table 3, 24 h treatment.
[4] abbreviates: read-out: 72 h CC50, Table 3, 72 h treatment.

Where two headings read alike, the source gives them in different places.

Take `COc1ccc(OC)c(-n2nnc(C(=O)Nc3cc(OCCCCCCOCCOCC(=O)N[C@H](C(=O)N4C[C@H](O)C[C@H]4C(=O)NCc4ccc(-c5scnc5C)cc4)C(C)(C)C)cc(C(C)(C)C)c3)c2C)c1` [Compound 15, N-(3-(TERT-BUTYL)-5-((6-(2-(2-(((S)-1-((2S,4R)-4-HYDROXY-2-((4-(4-METHYLTHIAZOL-5 YL)BENZYL)CARBAMOYL)PYRROLIDIN-1-YL)-3,3-DIMETHYL-1-OXOBUTAN-2-YL)AMINO)-2-OXOETHOXY)ETHOXY)HEXYL)OXY)PHENYL)-1-(2,5-DIMETHOXYPHENYL)-5-METHYL-1H-1,2,3-TRIAZOLE-4-CARBOXAMIDE]: the CC50 was greater than 30 µM under setting [1] and greater than 30 µM under setting [2].
Turning to `CCC[C@H](CC)Oc1ccc(C(=O)N[C@H](C(=O)N2C[C@H](O)C[C@H]2C(=O)NCc2ccc(-c3scnc3C)cc2)C(C)(C)C)cc1NC(=O)c1nnn(-c2cc(OC)ccc2OC)c1C` [Compound 16], the CC50 runs as follows: under setting [1], greater than 30 µM; under setting [2], greater than 30 µM.
In the case of `CCC[C@H](CC)Oc1ccc(C(=O)NCCCCC(=O)N[C@H](C(=O)N2C[C@H](O)C[C@H]2C(=O)NCc2ccc(-c3scnc3C)cc2)C(C)(C)C)cc1NC(=O)c1nnn(-c2cc(OC)ccc2OC)c1C` [Compound 17], the cytotoxic concentration (CC50) is greater than 30 µM under setting [1] and greater than 30 µM under setting [2].
For `CCC[C@H](CC)Oc1ccc(C(=O)NCCOCCOCC(=O)N[C@H](C(=O)N2C[C@H](O)C[C@H]2C(=O)NCc2ccc(-c3scnc3C)cc2)C(C)(C)C)cc1NC(=O)c1nnn(-c2cc(OC)ccc2OC)c1C` [Compound 18], the half-maximal cytotoxic concentration (CC50) by setting is: under setting [1], greater than 30 µM; under setting [2], greater than 30 µM.
For `CCC[C@H](CC)Oc1ccc(C(=O)NCCCCCCCCC(=O)N[C@H](C(=O)N2C[C@H](O)C[C@H]2C(=O)NCc2ccc(-c3scnc3C)cc2)C(C)(C)C)cc1NC(=O)c1nnn(-c2cc(OC)ccc2OC)c1C` [Compound 19], the CC50 runs as follows: under setting [1], greater than 30 µM; under setting [2], greater than 30 µM.
Regarding `CCC[C@H](CC)Oc1ccc(C(=O)NCCOCCOCCOCCOCC(=O)N[C@H](C(=O)N2C[C@H](O)C[C@H]2C(=O)NCc2ccc(-c3scnc3C)cc2)C(C)(C)C)cc1NC(=O)c1nnn(-c2cc(OC)ccc2OC)c1C` [Compound 21], the CC50 runs as follows: under setting [1], greater than 30 µM; under setting [2], greater than 30 µM.
With `COc1cc(OCC(=O)N[C@H](C(=O)N2C[C@H](O)C[C@H]2C(=O)NCc2ccc(-c3scnc3C)cc2)C(C)(C)C)c(C)cc1-n1nnc(S(=O)(=O)c2ccc(C(C)(C)C)cc2)c1C` [Compound 22, (2S,4R)-1-((S)-2-(2-(4-(4-((4-(TERT-BUTYL)PHENYL)SULFONYL)-5-METHYL-1H-1,2,3-TRIAZOL-1-YL)-5-METHOXY-2-METHYLPHENOXY)ACETAMIDO)-3,3-DIMETHYLBUTANOYL)-4-HYDROXY-N-(4-(4-METHYLTHIAZOL-5 YL)BENZYL)PYRROLIDINE-2-CARBOXAMIDE], the half-maximal cytotoxic concentration (CC50) by setting is: under setting [3], greater than 30 µM; under setting [4], greater than 30 µM.
For the compound `COc1cc(OCCCC(=O)N[C@H](C(=O)N2C[C@H](O)C[C@H]2C(=O)NCc2ccc(-c3scnc3C)cc2)C(C)(C)C)c(C)cc1-n1nnc(S(=O)(=O)c2ccc(C(C)(C)C)cc2)c1C` [Compound 23, (2S,4R)-1-((S)-2-(4-(4-(4-((4-(TERT-BUTYL)PHENYL)SULFONYL)-5-METHYL-1H-1,2,3-TRIAZOL-1-YL)-5-METHOXY-2-METHYLPHENOXY)BUTANAMIDO)-3,3-DIMETHYLBUTANOYL)-4-HYDROXY-N-(4-(4-METHYLTHIAZOL-5-YL)BENZYL)PYRROLIDINE-2-CARBOXAMIDE], the cytotoxic concentration (CC50) is greater than 30 µM under setting [3] and greater than 30 µM under setting [4].
Turning to `COc1cc(OCCOCCC(=O)N[C@H](C(=O)N2C[C@H](O)C[C@H]2C(=O)NCc2ccc(-c3scnc3C)cc2)C(C)(C)C)c(C)cc1-n1nnc(S(=O)(=O)c2ccc(C(C)(C)C)cc2)c1C` [Compound 24, (2S,4R)-1-((S)-2-(3-(2-(4-(4-((4-(TERT-BUTYL)PHENYL)SULFONYL)-5-METHYL-1H-1,2,3-TRIAZOL-1-YL)-5-METHOXY-2-METHYLPHENOXY)ETHOXY)PROPANAMIDO)-3,3-DIMETHYLBUTANOYL)-4-HYDROXY-N-(4-(4-METHYLTHIAZOL-5-YL)BENZYL)PYRROLIDINE-2-CARBOXAMIDE], the CC50 runs as follows: under setting [3], greater than 30 µM; under setting [4], greater than 30 µM.
With `COc1cc(OCCCCCCCC(=O)N[C@H](C(=O)N2C[C@H](O)C[C@H]2C(=O)NCc2ccc(-c3scnc3C)cc2)C(C)(C)C)c(C)cc1-n1nnc(S(=O)(=O)c2ccc(C(C)(C)C)cc2)c1C` [Compound 25, (2S,4R)-1-((S)-2-(8-(4-(4-((4-(TERT-BUTYL)PHENYL)SULFONYL)-5-METHYL-1H-1,2,3-TRIAZOL-1-YL)-5-METHOXY-2-METHYLPHENOXY)OCTANAMIDO)-3,3-DIMETHYLBUTANOYL)-4-HYDROXY-N-(4-(4-METHYLTHIAZOL-5-YL)BENZYL)PYRROLIDINE-2-CARBOXAMIDE], the CC50 runs as follows: under setting [3], greater than 30 µM; under setting [4], greater than 30 µM.
For the compound `COc1cc(OCCOCCOCCC(=O)N[C@H](C(=O)N2C[C@H](O)C[C@H]2C(=O)NCc2ccc(-c3scnc3C)cc2)C(C)(C)C)c(C)cc1-n1nnc(S(=O)(=O)c2ccc(C(C)(C)C)cc2)c1C` [Compound 26, (2S,4R)-1-((S)-2-(3-(2-(2-(4-(4-((4-(TERT-BUTYL)PHENYL)SULFONYL)-5-METHYL-1H-1,2,3-TRIAZOL-1-YL)-5-METHOXY-2-METHYLPHENOXY)ETHOXY)ETHOXY)PROPANAMIDO)-3,3-DIMETHYLBUTANOYL)-4-HYDROXY-N-(4-(4-METHYLTHIAZOL-5-YL)BENZYL)PYRROLIDINE-2-CARBOXAMIDE], the CC50 is greater than 30 µM under setting [3] and greater than 30 µM under setting [4].
Take `COc1cc(OCCOCCOCCOCCC(=O)N[C@H](C(=O)N2C[C@H](O)C[C@H]2C(=O)NCc2ccc(-c3scnc3C)cc2)C(C)(C)C)c(C)cc1-n1nnc(S(=O)(=O)c2ccc(C(C)(C)C)cc2)c1C` [Compound 27, (2S,4R)-1-((S)-14-(TERT-BUTYL)-1-(4-(4-((4-(TERT-BUTYL)PHENYL)SULFONYL)-5-METHYL-1H-1,2,3-TRIAZOL-1-YL)-5-METHOXY-2-METHYLPHENOXY)-12-OXO-3,6,9-TRIOXA-13-AZAPENTADECAN-15-OYL)-4-HYDROXY-N-(4-(4-METHYLTHIAZOL-5-YL)BENZYL)PYRROLIDINE-2-CARBOXAMIDE]: the CC50 is greater than 30 µM under setting [3] and greater than 30 µM under setting [4].
For `COc1cc(OCCCCCCOCCOCC(=O)N[C@H](C(=O)N2C[C@H](O)C[C@H]2C(=O)NCc2ccc(-c3scnc3C)cc2)C(C)(C)C)c(C)cc1-n1nnc(S(=O)(=O)c2ccc(C(C)(C)C)cc2)c1C` [Compound 28, (2S,4R)-1-((S)-2-(2-(2-((6-(4-(4-((4-(TERT-BUTYL)PHENYL)SULFONYL)-5-METHYL-1H-1,2,3-TRIAZOL-1-YL)-5-METHOXY-2-METHYLPHENOXY)HEXYL)OXY)ETHOXY)ACETAMIDO)-3,3-DIMETHYLBUTANOYL)-4-HYDROXY-N-(4-(4-METHYLTHIAZOL-5-YL)BENZYL)PYRROLIDINE-2-CARBOXAMIDE], the half-maximal cytotoxic concentration (CC50) reads like this: under setting [3], greater than 30 µM; under setting [4], greater than 30 µM.
On to `COc1cc(OCCOCCOCCOCCOCCC(=O)N[C@H](C(=O)N2C[C@H](O)C[C@H]2C(=O)NCc2ccc(-c3scnc3C)cc2)C(C)(C)C)c(C)cc1-n1nnc(S(=O)(=O)c2ccc(C(C)(C)C)cc2)c1C` [Compound 29, (2S,4R)-1-((S)-17-(TERT-BUTYL)-1-(4-(4-((4-(TERT-BUTYL)PHENYL)SULFONYL)-5-METHYL-1H-1,2,3-TRIAZOL-1-YL)-5-METHOXY-2-METHYLPHENOXY)-15-OXO-3,6,9,12-TETRAOXA-16-AZAOCTADECAN-18-OYL)-4-HYDROXY-N-(4-(4-METHYLTHIAZOL-5-YL)BENZYL)PYRROLIDINE-2-CARBOXAMIDE], for which the cytotoxic concentration (CC50) reads like this: under setting [3], greater than 30 µM; under setting [4], greater than 30 µM.
Turning to `COc1cc(OCC(=O)NCCOCCOCCOCCOCC(=O)N[C@H](C(=O)N2C[C@H](O)C[C@H]2C(=O)NCc2ccc(-c3scnc3C)cc2)C(C)(C)C)c(C)cc1-n1nnc(S(=O)(=O)c2ccc(C(C)(C)C)cc2)c1C` [Compound 30, (2S,4R)-1-((S)-2-(TERT-BUTYL)-20-(4-(4-((4-(TERT-BUTYL)PHENYL)SULFONYL)-5-METHYL-1H-1,2,3-TRIAZOL-1-YL)-5-METHOXY-2-METHYLPHENOXY)-4,19-DIOXO-6,9,12,15-TETRAOXA-3,18-DIAZAICOSANOYL)-4-HYDROXY-N-(4-(4-METHYLTHIAZOL-5-YL)BENZYL)PYRROLIDINE-2-CARBOXAMIDE], the CC50 reads like this: under setting [3], greater than 30 µM; under setting [4], greater than 30 µM.
With `COc1cc(OCCOCCOCCOCCOCCOCCC(=O)N[C@H](C(=O)N2C[C@H](O)C[C@H]2C(=O)NCc2ccc(-c3scnc3C)cc2)C(C)(C)C)c(C)cc1-n1nnc(S(=O)(=O)c2ccc(C(C)(C)C)cc2)c1C` [Compound 31, (2S,4R)-1-((S)-20-(TERT-BUTYL)-1-(4-(4-((4-(TERT-BUTYL)PHENYL)SULFONYL)-5-METHYL-1H-1,2,3-TRIAZOL-1-YL)-5-METHOXY-2-METHYLPHENOXY)-18-OXO-3,6,9,12,15-PENTAOXA-19-AZAHENICOSAN-21-OYL)-4-HYDROXY-N-(4-(4-METHYLTHIAZOL-5-YL)BENZYL)PYRROLIDINE-2-CARBOXAMIDE], the CC50 runs as follows: under setting [3], greater than 30 µM; under setting [4], greater than 30 µM.
As to `COc1cc(OCCCCCCOCCCCCOCCCCCC(=O)N[C@H](C(=O)N2C[C@H](O)C[C@H]2C(=O)NCc2ccc(-c3scnc3C)cc2)C(C)(C)C)c(C)cc1-n1nnc(S(=O)(=O)c2ccc(C(C)(C)C)cc2)c1C` [Compound 32, (2S,4R)-1-((S)-2-(6-((5-((6-(4-(4-((4-(tert-Butyl)phenyl)sulfonyl)-5-methyl-1H-1,2,3-triazol-1-yl)-5-methoxy-2-methylphenoxy)hexyl)oxy)pentyl)oxy)hexanamido)-3,3-dimethylbutanoyl)-4-hydroxy-N-(4-(4-methylthiazol-5-yl)benzyl)pyrrolidine-2-carboxamide], the CC50 by setting is: under setting [3], greater than 30 µM; under setting [4], greater than 30 µM.
